Data from patent EP4628081A1, “COMPOSITION FOR REMOVING HELICOBACTER PYLORI COMPRISING ZASTAPRAZAN OR PHARMACEUTICALLY ACCEPTABLE SALT THEREOF” (priority 2022, dated 2024).
Values after ≈ are worked out from the molar mass of the structure shown. Where two headings read alike, the source gives them in different places.

How the values were obtained:
[1] = system: Helicobacter pylori (ATCC43504); experiment: MIC and MBC by microdilution method according to CLSI guideline; assay type: cell-based; conditions: ATCC43504, 72 h
Experimental: Helicobacter pylori (ATCC43504): Type strain for antibiotic susceptibility testing according to the Clinical & Laboratory Standards Institute (CLSI) guidelines.
(§1) The medium was prepared using Müller-Hinton broth (MH, Difco Inc., Sparks, MD, USA) [w/7% […] (Sigma CO., LTD., St. Louis, USA), 0.4% isovitalex (BBL Inc., Sparks, MD, USA)].
(§2) An antibiotic susceptibility testing was performed using the microdilution method according to the CLSI guideline. Two-fold serial dilution was performed in 12 steps in a 48-well plate with the highest concentration of 128 µg/mL for amocixillin and clarithromycin and 256 µg/mL for omeprazole. The bacteria were inoculated into wells containing only medium without antibiotics to prepare the positive control group, and the wells containing only medium without antibiotics or inoculated bacteria were used as the negative control group. The concentration range of the test substances, zastaprazan (JP-1366) and fexuprazan, was determined through preliminary experiments. H. pylori stored in a deep freezer (-70 °C or lower) was thawed, inoculated onto BHI agar (w/7% laked horse blood and 0.4% isovitalex), cultured at 37 °C under microaerobic conditions of 5% O2, 10% CO2, and 85% N2 gas for three days, and then subcultured onto a fresh medium. The cultured bacteria were harvested, suspended in PBS, inoculated into each well at a concentration of 5 x 10^5 CFU/mL, and then cultured at 37 °C under microaerobic conditions of 5% O2, 10% CO2, and 85% N2 gas for three days. The lowest concentration at which no bacterial growth was observed was determined as the MIC. Thereafter, 10 µL of the culture solution from each well at different concentrations was spotted onto BHI agar (w/7% laked horse blood and 0.4% isovitalex) containing no antibiotics and cultured for three days at 37 °C under microaerobic conditions. The lowest concentration at which no bacteria growth occurred was determined as the MBC.
To determine the MBC, 10 µl of the culture solution from each well was spotted on a solid medium containing no antibiotics or test substances after the MIC determination, and bacterial growth was examined.
(§3) All tests were performed in duplicate, and the results were determined by conducting the experiments in triplicate.

[2] = Solubility observed during MIC analysis; assay type: physicochemical; conditions: in MIC medium; formation of suspension, interference in visual/absorbance analysis
Source text: Referring to Table 4 below, since the solubility of zastaprazan (JP-1366) was low, the MIC analysis was difficult (poor solubility, formation of suspension, interference in visual/absorbance analysis), so the inhibitory effect on the H. pylori strains was confirmed through the MBC index.

[3] = system: patients with erosive gastroesophageal reflux disease; experiment: Phase 2 clinical trial, healing of mucosal breaks and symptom assessment; assay type: in vivo, human; conditions: within 24 hours and for seven days after administration; subject diary
Experimental: H. pylori testing was performed by 13C-urea breath test (13C-UBT), gastroscopy (Campylobacter-like organism test, CLO), or tissue biopsy to confirm H. pylori positivity/negativity. […] This clinical trial was a randomized, double-blind, active-controlled, multicenter, phase 2 clinical trial targeting patients with erosive gastroesophageal reflux disease. After the subjects gave written consent to participate in the clinical trial, a screening test was conducted. […] At this time, the subjects were stratified by grade (A, B, C, D) according to the LA classification system classified by upper gastrointestinal endoscopy. Randomly assigned subjects took the clinical trial drug once a day according to the assigned administration group for four weeks. After four weeks of administration of the clinical trial drug, the subjects visited the clinical trial institution to undergo an upper gastrointestinal endoscopy to assess whether they were healed. Healed subjects underwent a Safety Follow-Up (F/U) two weeks later, and unhealed subjects were administered the clinical trial drug for additional four weeks (a total of 8 weeks of administration) and visited the clinical trial institution to undergo an upper gastrointestinal endoscopy. […]

[4] = system: Helicobacter pylori 26695 (ATCC700329); experiment: MIC and MBC by microdilution method according to CLSI guideline; assay type: cell-based; conditions: ATCC700329, 72 h
Experimental: Helicobacter pylori 26695 (ATCC700329): A strain isolated from a patient known to be associated with the development of gastric cancer. The strain is cytotoxin associated gene (CagA)-positive and vacuolating cytotoxin (VacA)-positive and has a well-known genetic background, so it is mainly used for research purposes.
as §1
An antibiotic susceptibility testing was performed using the microdilution method according to the CLSI guideline. […] The concentration range of the test substances, zastaprazan (JP-1366) and fexuprazan, was determined through preliminary experiments. […] The lowest concentration at which no bacterial growth was observed was determined as the MIC. […] The lowest concentration at which no bacteria growth occurred was determined as the MBC.
To determine the MIC, visual inspection was performed and the absorbance was measured at 600 nm, and the growth was confirmed based on the absorbance of the negative control group containing only the medium. […]
as §3

[5] = system: Helicobacter pylori SS1 (mouse colonizing strain); experiment: as above; assay type: cell-based; conditions: 72 h, 3 days; for MBC: spotted on antibiotic-free BHI agar, unit from method b141/b236, table prints none
Experimental: Helicobacter pylori SS1 (mouse colonizing strain): A strain known as Sydney strain. The strain is CagA-positive and VacA-positive and has been confirmed to infect and colonize in C57BL/6 mice. The strain is used in animal testing.
as §1
as §2, with “Thereafter, 10 µL of the culture solution from each well at different concentrations was spotted onto BHI agar (w/7% laked horse blood and 0.4% isovitalex) containing no antibiotics and cultured for three days at 37 °C under microaerobic conditions.” left out, “MBC. […]” for “MBC.”
as §3

[6] = system: Helicobacter pylori SS1 (mouse colonizing strain); experiment: Clarithromycin MIC and MBC by microdilution with or without JP-1366 in the medium; assay type: cell-based; conditions: medium containing zastaprazan (JP1366) at 1/2 MIC concentration vs MH medium
Experimental: Helicobacter pylori SS1 (mouse colonizing strain): Known as Sydney strain, the strain is CagA-positive and VacA-positive, and has been confirmed to colonize mice C57BL/6 and is used in animal experiments.
Zastaprazan (JP-1366) was supplied as a product prepared at a concentration of 10 mM in dimethyl sulfoxide (DMSO) solvent, and clarithromycin was prepared at a concentration of 5 mg/mL in DMSO solvent.
An antibiotic susceptibility test was performed by the microdilution method according to CLSI guideline.
The antibiotic susceptibility test was performed using MH broth (7% horse serum, 0.4% IsoVitalex), and the susceptibility test medium for zastaprazan (JP-1366) was prepared at this time. […] Using the medium prepared in this way, clarithromycin was serially diluted 2-fold and in 16 steps, with a maximum concentration of 16 µg/mL. Wells containing only the medium without antibiotics were used as a negative control group, and wells inoculated only with the bacteria in the medium without antibiotics were used as a positive control group. […] The lowest concentration of the sample at which no bacterial growth was observed was determined as the MIC. […] The lowest concentration at which no bacterial growth was observed was determined as the minimum bactericidal concentration(MBC). […]

With `COc1ccc2[nH]c([S+]([O-])Cc3ncc(C)c(OC)c3C)nc2c1` (stereo not shown) [Omeprazole] the MBC [1] was 64 µg/mL (≈ 185 µM) and the MIC [1] was 32 µg/mL (≈ 92.6 µM).

With `Cc1cccc(C)c1CNc1cc(C(=O)N2CCC2)cn2c(C)c(C)nc12.O=C(O)CC(O)(CC(=O)O)C(=O)O` [JP-1366, azetidin-1-yl{8-[(2,6-dimethylbenzyl)amino]-2,3-dimethylimidazo[1,2-a]pyridin-6-yl}methanone citrate salt] the solubility [2] was “low” and the “evaluation of all symptoms (heartburn, acid reflux, heartburn/acid reflux)” value [3] was “all symptoms tended to be ameliorated”.

`CC[C@H]1OC(=O)[C@H](C)[C@@H](O[C@H]2C[C@@](C)(OC)[C@@H](O)[C@H](C)O2)[C@H](C)[C@@H](O[C@@H]2O[C@H](C)C[C@H](N(C)C)[C@H]2O)[C@](C)(OC)C[C@@H](C)C(=O)[C@H](C)[C@@H](O)[C@]1(C)O` [Clarithromycin] showed an MBC [1] of 0.063 µg/mL (≈ 0.0842 µM), an MIC [1] of 0.032 µg/mL (≈ 0.0428 µM) and an MBC [4] of 0.125 µg/mL (≈ 0.167 µM). The MIC ([5]; 37 °C, microaerobic, unit from method b141, table prints none) was 0.032 µg/mL (≈ 0.0428 µM), the MBC [5] was 0.125 µg/mL (≈ 0.167 µM) and the “MBC lowered by” value [6] was “about 1/2”.

With `CC1(C)S[C@@H]2[C@H](NC(=O)[C@H](N)c3ccc(O)cc3)C(=O)N2[C@H]1C(=O)O` [Amoxicillin, Amoxicillin Trihydrate] the MBC ([1]; strain 43504, spotted on antibiotic-free BHI agar, 3 days, unit from method b141/b236, table prints none, read-out: MBC) was 0.032 µg/mL, the MBC ([4]; strain 26695, spotted on antibiotic-free BHI agar, 3 days, unit from method b141/b236, table prints none, read-out: MBC) was 0.032 µg/mL and the MBC [5] was 0.25 µg/mL.
